Key:
[1] = target: human A2A adenosine receptor (Homo sapiens, UniProt P29274); assay: Radioligand binding, human A2A AR (Table 1); conditions: for inhibition at 10 µM: read-out: A2A % inhib.
[2] = target: T1, human A1 adenosine receptor (Homo sapiens, UniProt P30542); assay: Radioligand binding, human A1 AR, CHO membranes (Table 1); conditions: for A1 % inhib.: species H (human), percent in parentheses, concentration not marked
T1 sequence (P30542 1-326): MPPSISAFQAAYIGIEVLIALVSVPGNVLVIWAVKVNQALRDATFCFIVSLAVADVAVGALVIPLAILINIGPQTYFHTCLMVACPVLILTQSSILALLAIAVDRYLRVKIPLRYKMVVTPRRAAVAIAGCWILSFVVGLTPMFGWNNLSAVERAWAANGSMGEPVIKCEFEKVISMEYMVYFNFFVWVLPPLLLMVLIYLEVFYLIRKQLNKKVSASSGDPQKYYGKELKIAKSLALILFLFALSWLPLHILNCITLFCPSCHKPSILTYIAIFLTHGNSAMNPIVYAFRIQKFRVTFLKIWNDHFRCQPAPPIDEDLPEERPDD

[3] = target: T2, human A3 adenosine receptor (Homo sapiens, UniProt P0DMS8); assay: [125I]I-AB-MECA binding, human A3 AR, CHO membranes (Table 1); conditions: for Ki: A3 Ki, species H (human); for Selectivity A1/A3: human
T2 sequence (P0DMS8 1-318): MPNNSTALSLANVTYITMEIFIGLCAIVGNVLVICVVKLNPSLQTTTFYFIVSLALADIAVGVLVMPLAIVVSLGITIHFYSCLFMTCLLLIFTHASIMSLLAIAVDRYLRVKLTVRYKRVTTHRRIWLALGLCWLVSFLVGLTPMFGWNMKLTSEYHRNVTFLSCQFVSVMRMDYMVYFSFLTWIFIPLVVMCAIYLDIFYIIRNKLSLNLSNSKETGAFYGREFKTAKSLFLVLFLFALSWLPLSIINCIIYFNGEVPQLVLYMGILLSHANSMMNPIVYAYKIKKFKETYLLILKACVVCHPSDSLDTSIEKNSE

[4] = target: T3, mouse A1 adenosine receptor (Mus musculus, UniProt Q60612); assay: Competition radioligand binding, mouse A1 AR, HEK293 membranes (Table 1)
T3 sequence (Q60612 1-326): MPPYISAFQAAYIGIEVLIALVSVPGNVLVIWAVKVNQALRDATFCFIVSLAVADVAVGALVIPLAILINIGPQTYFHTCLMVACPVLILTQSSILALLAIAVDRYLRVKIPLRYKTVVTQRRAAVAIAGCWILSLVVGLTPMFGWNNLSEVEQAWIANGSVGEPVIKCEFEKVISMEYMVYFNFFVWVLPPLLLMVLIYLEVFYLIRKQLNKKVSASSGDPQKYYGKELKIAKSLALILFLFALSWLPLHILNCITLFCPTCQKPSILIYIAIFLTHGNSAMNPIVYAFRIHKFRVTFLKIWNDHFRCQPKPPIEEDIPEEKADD

[5] = target: T4, mouse A3 adenosine receptor (Mus musculus, UniProt Q61618); assay: Competition radioligand binding, mouse A3 AR, HEK293 membranes (Table 1); conditions: for Ki: A3 Ki, species M (mouse), [125I]I-AB-MECA; for Selectivity A1/A3: mouse
T4 sequence (Q61618 1-319): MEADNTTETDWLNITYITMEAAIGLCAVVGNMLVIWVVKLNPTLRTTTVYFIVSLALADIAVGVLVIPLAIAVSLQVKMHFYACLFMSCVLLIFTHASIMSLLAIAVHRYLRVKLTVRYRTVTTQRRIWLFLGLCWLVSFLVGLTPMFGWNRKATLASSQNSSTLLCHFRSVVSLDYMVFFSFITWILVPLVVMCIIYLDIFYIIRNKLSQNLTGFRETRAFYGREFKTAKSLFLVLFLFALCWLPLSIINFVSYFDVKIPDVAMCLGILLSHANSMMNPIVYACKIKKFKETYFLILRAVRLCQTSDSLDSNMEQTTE

[6] = target: mouse A2A adenosine receptor (Mus musculus, UniProt Q60613); assay: Competition radioligand binding, mouse A2A AR, HEK293 membranes (Table 1); conditions: for inhibition at 100 µM: read-out: A2A % inhib.
Sequence of mouse A2A adenosine receptor (Q60613 whole entry): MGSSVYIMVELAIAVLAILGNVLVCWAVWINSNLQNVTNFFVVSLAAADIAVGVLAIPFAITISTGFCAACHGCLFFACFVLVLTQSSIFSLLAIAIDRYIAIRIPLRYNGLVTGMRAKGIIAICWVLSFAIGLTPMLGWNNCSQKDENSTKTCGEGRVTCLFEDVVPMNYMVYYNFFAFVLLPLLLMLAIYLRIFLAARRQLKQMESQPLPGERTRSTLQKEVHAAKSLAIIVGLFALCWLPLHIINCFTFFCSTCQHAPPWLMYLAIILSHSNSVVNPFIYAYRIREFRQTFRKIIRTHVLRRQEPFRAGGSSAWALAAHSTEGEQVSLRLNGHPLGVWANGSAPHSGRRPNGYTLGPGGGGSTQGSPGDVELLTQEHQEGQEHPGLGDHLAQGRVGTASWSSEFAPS

human A3AR = target: T5, human A3AR (Homo sapiens, UniProt P0DMS8); assay: Inhibition of forskolin-stimulated cyclic AMP production in AR transfected CHO cells (Table 1); assay type: cell-based; conditions: CHO; read-out: % Efficacy at the human A3 AR
T5 construct: expressed in transfected cells; host or cells: CHO
T5 sequence (P0DMS8 1-318): T2 sequence (P0DMS8 1-318)

Sequence of human A2A adenosine receptor (P29274 whole entry): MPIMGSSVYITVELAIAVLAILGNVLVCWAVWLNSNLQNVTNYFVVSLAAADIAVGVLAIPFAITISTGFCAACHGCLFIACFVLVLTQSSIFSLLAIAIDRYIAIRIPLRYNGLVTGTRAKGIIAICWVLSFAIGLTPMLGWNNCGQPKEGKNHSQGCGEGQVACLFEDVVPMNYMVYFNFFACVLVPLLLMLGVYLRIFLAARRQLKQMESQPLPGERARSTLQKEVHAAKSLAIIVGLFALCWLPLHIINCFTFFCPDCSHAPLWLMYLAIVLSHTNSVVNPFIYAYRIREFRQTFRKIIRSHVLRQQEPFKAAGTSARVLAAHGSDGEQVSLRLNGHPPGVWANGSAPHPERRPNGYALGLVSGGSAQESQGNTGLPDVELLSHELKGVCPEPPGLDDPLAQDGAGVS

`CNC(=O)C12CC1C(n1cnc3c(NCc4cccc(Cl)c4)nc(SC)nc31)C(O)C2O` (stereo not drawn) [Compound 20] showed a Ki [1] of 10000 nM, a Ki [2] of 610 nM and a Ki [3] of 1.5 nM. For the same compound, the Ki [4] was 98.9 ± 18.8 nM, the Ki [5] was 1.19 ± 0.09 nM and the “Selectivity A1/A3” value [5] was 83. For the same compound, the inhibition at 100 µM [6] was 32%.

`CNC(=O)C12CC1C(n1cnc3c(NCc4cccc(Cl)c4)nc(C#CCCCC(=O)OC)nc31)C(O)C2O` (stereo not drawn) [Compound 6, (1′S,2′R,3′S,4′S,5′S)-4′-[6-(3-Chlorobenzylamino)-2-(5-methoxycarbonyl-1-pentynyl)-9-yl]-2′,3′-dihydroxybicyclo[3.1.0]hexane-1′-carboxylic acid N-methylamide] gave an inhibition at 10 µM [1] of 49%, a Ki [2] of 482 ± 23 nM and a Ki [4] of 1340 ± 330 nM. It also gave a Ki [5] of 4.65 ± 0.53 nM and an inhibition at 100 µM [6] of 50%.

For `CCN1C(=CC=CC=CC2=[N+](CCCCCC(=O)NCCNC(=O)CCC#Cc3nc(NCc4cccc(Cl)c4)c4ncn(C5C(O)C(O)C6(C(=O)NC)CC56)c4n3)c3ccc(S(=O)(=O)[O-])cc3C2(C)C)C(C)(C)c2cc(S(=O)(=O)O)ccc21` (stereo not drawn) [Compound 44, (1′S,2′R,3′S,4′S,5′S)-4′-[6-(3-Chlorobenzylamino)-2-(N-Cyanine(β-aminoethylaminocarbonyl)-1-butynyl)-9-yl]-2′,3′-dihydroxybicyclo[3.1.0]hexane-1′-carboxylic acid N-methylamide], the A1 % inhib. [2] was “(10 ± 4%)”.

Compound `CNC(=O)C12CC1C(n1cnc3c(NCc4cccc(Cl)c4)nc(C#CCCC(=O)O)nc31)C(O)C2O` (stereo not drawn) [Compound 33] has an Emax at 10 µM (human A3AR) of 106 ± 17.7% and a Ki [3] of 61.1 ± 35.8 nM.

Work on `CNC(=O)C12CC1C(n1cnc3c(NCc4cccc(Cl)c4)nc(C#C[Si](C)(C)C)nc31)C(O)C2O` (stereo not drawn) [Compound 4, (1′S,2′R,3′S,4′S,5′S)-4′-[6-(3-Chlorobenzylamino)-2-trimethylsilylethynyl-9-yl]-2′,3′-dihydroxybicyclo[3.1.0]hexane-1′-carboxylic acid N-methylamide] yielded an inhibition at 10 µM [1] of 52%, a Ki [2] of 160 ± 40 nM and a Ki [3] of 0.98 ± 0.14 nM. For the same compound, the “Selectivity A1/A3” value [3] was 160, the Ki [4] was 159 ± 22 nM and the Ki [5] was 4.46 ± 0.57 nM. The “Selectivity A1/A3” value [5] was 35.6 and the inhibition at 100 µM [6] was 20%.

`CNC(=O)C12CC1C(n1cnc3c(NCc4cccc(C#CCCCC(=O)O)c4)nc(Cl)nc31)C(O)C2O` (stereo not drawn) [Compound 9] was tested, and the inhibition at 10 µM [1] was 14% and the inhibition at 100 µM [6] was 5%.

With `CNC(=O)C12CC1C(n1cnc3c(NCc4cccc(Cl)c4)nc(C#CCCC(=O)NCCCN)nc31)C(O)C2O` (stereo not drawn) [Compound 39, (1′S, 2′R, 3′S, 4′S, 5′S)-4′-[6-(3-Chlorobenzylamino)-2-(4-(β-aminopropylaminocarbonyl)-1-butynyl)-9-yl]-2′,3′-dihydroxybicyclo[3.1.0]hexane-1′-carboxylic acid N-methylamide] the Ki [1] was 979 ± 181 nM, the A1 % inhib. [2] was “(16 ± 4%)” and the Ki [3] was 3.1 ± 0.4 nM.

In the case of `CNC(=O)C12CC1C(n1cnc3c(NOC)nc(Cl)nc31)C(O)C2O` (stereo not drawn) [Compound 21, (1′S,2′R,3′S,4′S,5′S)-4′-[6-Methoxyamino-2-chloropurin-9-yl]-2′,3′-dihydroxybicyclo[3.1.0]hexane-1′-carboxylic acid N-methylamide], the inhibition at 10 µM [1] is reported as 2%, the Ki [2] is reported as 265 ± 45 nM and the Ki [3] is reported as 149 ± 15 nM. For the same compound, the “Selectivity A1/A3” value [3] was 1.8, the Ki [4] was 1160 ± 130 nM and the Ki [5] was 877 ± 149 nM. For the same compound, the “Selectivity A1/A3” value [5] was 1.3 and the inhibition at 100 µM [6] was 2%.

`CNC(=O)C12CC1C(n1cnc3c(NCc4cccc(Cl)c4)nc(I)nc31)C(O)C2O` (stereo not drawn) [Compound 1] gave a Ki [1] of over 10000 nM and an inhibition at 100 µM [6] of 40%.

In the case of `CNC(=O)C12CC1C(n1cnc3c(NCc4cccc(C#CCCCC(=O)NCCN)c4)nc(Cl)nc31)C(O)C2O` (stereo not drawn) [Compound 10], the inhibition at 10 µM [1] is reported as 58%, the Ki [2] is reported as 271 ± 23 nM and the Ki [3] is reported as 5.21 nM. For the same compound, the “Selectivity A1/A3” value [3] was 52, the Ki [4] was 151 ± 18 nM and the Ki [5] was 11.9 ± 2.4 nM. The “Selectivity A1/A3” value [5] was 13 and the inhibition at 100 µM [6] was 39%.

`CNC(=O)C12CC1C(n1cnc3c(NCc4cc(OC)ccc4OC)nc(I)nc31)C(O)C2O` (stereo not drawn) [Compound 2, (1′S,2′R,3′S,4′S,5′S)-4′-[6-(2,5-Dimethoxybenzylamino)-2-iodopurin-9-yl]-2′,3′-dihydroxybicyclo[3.1.0]hexane-1′-carboxylic acid N-methylamide] was tested, and the inhibition at 10 µM [1] was 35% and the inhibition at 100 µM [6] was 14%.

Compound `CNC(=O)C12CC1C(n1cnc3c(NCc4cccc(Cl)c4)nc(C#CCCCC(=O)O)nc31)C(O)C2O` (stereo not drawn) [Compound 7, (1′S,2′R,3′S,4′S,5′S)-4′-[6-(3-chlorobenzylamino)-2-(5-hydroxycarbonyl-1-pentynyl)-9-yl]-2′,3′-dihydroxybicyclo[3.1.0]hexane-1′-carboxylic acid N-methylamide] has an inhibition at 10 µM [1] of 43% and an inhibition at 100 µM [6] of 8%.

In the case of `CNC(=O)C12CC1C(n1cnc3c(NCc4cccc(C#CCCCC(=O)NCCNC(C)=O)c4)nc(Cl)nc31)C(O)C2O` (stereo not drawn) [Compound 11], the inhibition at 10 µM [1] is reported as 80% and the inhibition at 100 µM [6] is reported as 68%.

For `CNC(=O)C12CC1C(n1cnc3c(NCc4cccc(Cl)c4)nc(C#CCCC(=O)NCCN)nc31)C(O)C2O` (stereo not drawn) [Compound 37, (1′S, 2′R, 3′S, 4′S, 5′S)-4′-[6-(3-Chlorobenzylamino) 2-(4-(β-aminoethylaminocarbonyl)-1-butynyl)-9-yl]-2′,3′-dihydroxybicyclo[3.1.0]hexane-1′-carboxylic acid N-methylamide], the Ki [1] was 550 ± 83 nM, the A1 % inhib. [2] was “(25 ± 12%)” and the Ki [3] was 2.5 ± 0.5 nM. The “Selectivity A1/A3” value [3] was “up to 1900”.

In the case of `CNC(=O)C12CC1C(n1cnc3c(NCc4cccc(Cl)c4)nc(C#CCCCCC(=O)O)nc31)C(O)C2O` (stereo not drawn) [Compound 34], the A1 % inhib. [2] is reported as “(5 ± 3%)” and the Ki [3] is reported as 12.4 ± 1.8 nM.

With `CNC(=O)C12CC1C(n1cnc3c(NCc4cccc(Cl)c4)nc(C#CCCC(=O)NCCNCCN)nc31)C(O)C2O` (stereo not drawn) [Compound 41] the Ki [1] was 890 ± 110 nM, the A1 % inhib. [2] was “(14 ± 8%)” and the Ki [3] was 15.4 ± 4.4 nM.

`CNC(=O)C12CC1C(n1cnc3c(NCc4cccc(Cl)c4)nc(C#CCCCCC(=O)NCCN)nc31)C(O)C2O` (stereo not drawn) [Compound 38, (1′S,2′R,3′S,4′S,5′S)-4′-[6-(3-Chlorobenzylamino)-2-(6-(β-aminoethylaminocarbonyl)-1-hexynyl)-9-yl]-2′,3′-dihydroxybicyclo[3.1.0]hexane-1′-carboxylic acid N-methylamide] was tested, and the Ki [1] was 277 ± 33 nM, the A1 % inhib. [2] was “(21 ± 6%)” and the Ki [3] was 3.4 ± 0.7 nM.

`CNC(=O)C12CC1C(n1cnc3c(NCc4cccc(Cl)c4)nc(C#CCCCC(=O)NCCN)nc31)C(O)C2O` (stereo not drawn) [Compound 8] showed an inhibition at 10 µM [1] of 81%, a Ki [2] of 454 ± 44 nM and a Ki [3] of 2.17 ± 0.51 nM. The “Selectivity A1/A3” value [3] was 209, the Ki [4] was 546 ± 62 nM and the Ki [5] was 8.6 ± 1.02 nM. The “Selectivity A1/A3” value [5] was 64 and the inhibition at 100 µM [6] was 31%.

`CNC(=O)C12CC1C(n1cnc3c(NCC(c4ccccc4)c4ccccc4)nc(Cl)nc31)C(O)C2O` (stereo not drawn) [Compound 18] was tested, and the Ki [4] was 6.83 ± 1.5 nM, the Ki [5] was 1.67 ± 0.09 nM and the “Selectivity A1/A3” value [5] was 4.1. The Ki [6] was 1810 ± 581 nM.

`CNC(=O)C12CC1C(n1cnc3c(NCc4cccc(Cl)c4)nc(C#CCCC(=O)NCCNC(=O)CCCCC4SCC5NC(=O)NC54)nc31)C(O)C2O` (stereo not drawn) [Compound 42, (1′S,2′R,3′S,4′S,5′S)-4′-[6-(3-Chlorobenzylamino)-2-(N-biotinyl(β-aminoethylaminocarbonyl)-1-butynyl)-9-yl]-2′,3′-dihydroxybicyclo[3.1.0]hexane-1′-carboxylic acid N-methylamide] was tested, and the A1 % inhib. [2] was “(13 ± 6%)” and the Ki [3] was 36.4 ± 5.6 nM.

Reference: patent US8916570B2 (The United States of America, as represented by the …, priority 2008, dated 2014)
